Laboratory results as given in patent publication US4554353A, “2,5-Pyrrolidinedione derivatives useful as antiarrhythmic agents” (G. D. Searle & Co., priority 1984, dated 1985).

What was measured:
Ventricular arrhythmia = assay: Harris Dog Efficacy (ventricular arrhythmia induced by 2-stage coronary artery ligation in unanesthetized dogs); assay type: in vivo; settings: for minimal effective dose: Canis lupus familiaris, 10 min, intravenous, unanesthetized dogs, at least 25% reduction in ectopic beats for at least 10 minutes in half or more of dogs; for activity in the dog ventricular arrhythmia test: active = at least 25% reduction in ectopic beats for at least 10 minutes in half or more of dogs
Protocol: Ventricular arrhythmia is induced by a 2-stage ligation of the anterior descending branch of the left coronary artery in each of two or more unanesthetized dogs. The test compound is administered intravenously at 5 mpk doses to a maximum dose of 20 mpk.

Muscarinic Receptor = Muscarinic Receptor Binding Assay (3H-QNB displacement, rat brain homogenate); settings: inhibition of specific 3H-QNB binding by 50%, 0.15 nM 3H-QNB, pH 7.4, 25° C., 1 hour

Row | Structure (SMILES) | IC50 (Muscarinic Receptor) [nM] | minimal effective dose (Ventricular arrhythmia) [mg/kg] | activity in the dog ventricular arrhythmia test (Ventricular arrhythmia)
1 | CCN(CC)CCNC(=O)c1ccc(N)cc1 [procainamide, reference compound] |  |  | active
2 | C=C[C@H]1C[N@@]2CC[C@H]1C[C@@H]2[C@@H](O)c1ccnc2ccc(OC)cc12 [quinidine, reference compound] |  |  | active
3 | CC(C)N(CCC(C(N)=O)(c1ccccc1)c1ccccn1)C(C)C (stereo not shown) [Norpace, reference compound] |  |  | active

Now from value to molecule, other results behind:

Row | IC50 (Muscarinic Receptor) [nM] | Structure (SMILES) | minimal effective dose (Ventricular arrhythmia) [mg/kg] | activity in the dog ventricular arrhythmia test (Ventricular arrhythmia)
4 | 140 | CC(C)N(CCC1(c2ccccc2)CC(=O)NC1=O)C(C)C (stereo not shown) [Example 2, 3-[2-[bis(1-methylethyl)amino]ethyl]-3-phenyl-2,5-pyrrolidinedione] | 10 | 
5 | 300 | CC(C)N(CCC1(c2ccccc2Cl)CC(=O)NC1=O)C(C)C (stereo not shown) [Example 4, 3-[2-[bis(1-methylethyl)-amino]ethyl]-3-(2-chlorophenyl)-2,5-pyrrolidinedione] | 2.8 | 
6 | 20 | CCN(CC)CCC1(c2ccccc2)CC(=O)NC1=O (stereo not shown) [Formula II (Prior Art), reference compound] | 2 | 
7 | 3600 | CCCN(CCC)CCCC1(c2ccccc2Cl)CC(=O)NC1=O (stereo not shown) [Example 14] | 1 | 
8 | 470 | CC1CCCC(C)N1CCC1(c2ccccc2Cl)CC(=O)NC1=O (stereo not shown) [Example 6, 3-(2-chlorophenyl)-3-[2-(2,6-dimethyl-1-piperidinyl)ethyl]-2,5-pyrrolidinedione] | 1.3 | 
